Assay results from patent US11891415B2, “Depsipeptides and uses thereof” (NovoBiotic Pharmaceuticals, LLC, priority 2017, dated 2024).

What was measured:
MRSA ATCC 33591 = assay: Mouse septicemia model; conditions: CD-1 female mice, MRSA ATCC 33591, 2.5 mg/kg intravenous one hour post infection
S. aureus ATCC 33591 = assay: Neutropenic mouse thigh infection model; type: in vivo; conditions: single dose of 50 mg/kg, thigh load at 26 hours
Procedure: The compound of Formula (III) was next evaluated in a neutropenic mouse thigh infection model against S. aureus ATCC 33591. For the study, mice challenged with S. aureus ATCC 33591 were intravenously administered two 5 mg/kg, 10 mg/kg, 20 mg/kg and 30 mg/kg doses of the compound of Formula (III) at 2 and 4 hours post-infection, or vancomycin as a single dose of 50 mg/kg as a control. The bacterial load in the thigh at 26 hours post-infection was measured.

## CN[C@H](CC(C)C)C(=O)N[C@H]1C(=O)N[C@@H](CC(N)=O)C(=O)N[C@H]2C(=O)N[C@H]3C(=O)N[C@H](C(=O)N[C@H](C(=O)O)c4cc(O)cc(O)c4-c4cc3ccc4O)[C@H](O)c3ccc(c(Cl)c3)Oc3cc2cc(c3O[C@@H]2O[C@H](CO)[C@@H](O)[C@H](O)[C@H]2O[C@H]2C[C@](C)(N)[C@H](O)[C@H](C)O2)Oc2ccc(cc2Cl)[C@H]1O [vancomycin]
MRSA ATCC 33591
  survival: all survived
S. aureus ATCC 33591
  CFU reduction from the 2 hour infection controls: 0.54 log10 CFU
  CFU reduction from the 26 hour infection controls: 3.65 log10 CFU
